Experimental data reported in US6410054B1, “Immediate release eplerenone compositions” (G. D. Searle & Co., priority 1998, dated 2002).
Like-named read-outs stand apart in the source and are kept apart here.

Assays:
[1] = Effect of food study: plasma pharmacokinetics fasted vs high-fat breakfast; type: in vivo, humans; settings: for concentration at 0.5 h / concentration at 1 h / concentration at 2 h / concentration at 3 h / concentration at 4 h / concentration at 6 h / concentration at 8 h / concentration at 28 h / concentration at 48 h / concentration at 72 h / concentration at 12 h / concentration at 16 h / concentration at 24 h / concentration at 32 h / concentration at -0.5 h: male, human, plasma, oral, 100 mg, 100 mg eplerenone capsule; for concentration at 0.5 h: 0.5 hours after dosing; for concentration at 1 h: 1.0 hours after dosing; for concentration at 2 h: 2.0 hours after dosing; for concentration at 3 h: 3.0 hours after dosing; for concentration at 4 h: 4.0 hours after dosing; for concentration at 6 h: 6.0 hours after dosing; for concentration at 8 h: 8.0 hours after dosing; for concentration at 28 h: 28.0 hours after dosing; for concentration at 48 h: 48.0 hours after dosing; for concentration at 72 h: 72.0 hours after dosing; for concentration at 12 h / concentration at 16 h / concentration at 24 h / concentration at 32 h: […] after dosing; for concentration at -0.5 h: −0.5 hours after dosing
Experimental: An open-label randomized, cross-over study was employed to evaluate the pharmacokinetic profiles of eplerenone under fasted and fed conditions, and the safety and tolerability of eplerenone. Safety was assessed based on adverse events, vital signs and clinical laboratory tests. Twelve healthy male subjects were randomized to receive a single 100 mg dose of eplerenone on days 1 and 8 under (i) fasted conditions, or (ii) immediately following a high-fat breakfast. The subjects were orally administered (dosed) a single 100 mg dose of eplerenone in the form of the capsule described in Example 7, together with approximately 200 to 240 mL of water at 0800 hours on days 1 and 8. Subjects randomized to receive a high-fat breakfast were to completely ingest the meal within 20 minutes prior to dosing. The high-fat meal contained approximately 33 g protein, 75 g fat, 58 g carbohydrates and 1000 calories. […] All adverse events were mild in severity.

[2] = tested on: plasma proteins; assay: Binding of radioactivity / [14C]eplerenone to plasma proteins; type: in vitro ADME, humans
Experimental: The mean concentration of total radioactivity in these samples was 2.39 μg/mL.

[3] = tested on: blood pressure; assay: Treatment of hypertension study: blood pressure; type: in vivo, humans; settings: for 24 hour mean ΔDBP / 24 hour mean ΔSBP / Primary Efficacy Variable: ΔDBP at trough (sitting) / ΔSBP at trough (sitting): eight weeks
Experimental: The safety and efficacy of a range of doses of eplerenone in the treatment of hypertension relative to placebo were evaluated in a multi-center, randomized, double-blind, placebo-lead-in, parallel group study. […] The primary efficacy variable was the change in cuff diastolic blood pressure (ADBP; sitting) measured at trough plasma levels after eight weeks of double blind treatment. The secondary variables measured were the change in trough cuff systolic blood pressure (ΔSBP; sitting), change in 24 hour mean diastolic blood pressure (ΔDBP), and change in 24 hour mean systolic blood pressure (ΔSBP). The primary and secondary efficacy variables were analyzed to compare BID versus QD dosing regimens for each eplerenone dose group, and both eplerenone and spironolactone versus placebo. Changes in plasma renin and serum aldosterone after eight weeks of dosing were also analyzed as secondary measures of efficacy.
The specific pharmaceutical compositions of each eplerenone capsule are reported in Examples 5, 6, 7 and 8. The placebo was a conventional capsule containing lactose.

[4] = design: species or system beagle dogs; settings: female, beagle, dog, in vivo
Experimental: The effect of the particle size of the eplerenone starting material used in the pharmaceutical composition on eplerenone plasma concentrations and relative bioavailability was studied in a dog model. Four healthy female beagle dogs weighing between 8 to 12 kg were intragastrically administered one immediate release (IR) capsule containing the formulation described in Table 30A below followed by about 10 mL of water.
The dogs were fasted for 15 to 20 hours prior to administration of the capsule and were not fed again until at least 4 hours after dose administration. Blood samples (approximately 3 mL) were collected by venipuncture in chilled tubes containing heparin at 0, 0.5, 1, 2, 3, 4, 6, 8 and 24 hours after dose administration. The blood samples were immediately placed on ice. Separation of plasma from the blood samples was complete after about 15 minutes of centrifugation. The resulting plasma samples were frozen at about −20° C. and stored until analyzed. Analysis was performed using an LC/MS/MS procedure.
This study was conducted using the same four dogs for three formulations that were identical except for the particle size of the eplerenone starting material. […]

[5] = Multiple dose study: plasma pharmacokinetics and urinary excretion; type: in vivo, humans; settings: for AUC / Cmax / Tmax / half-life: male, human, plasma, oral; for half-life: read-out: T½ (converted)
Experimental: Multiple oral dose tolerability and the pharmacokinetics of several dosages of eplerenone were evaluated in a double-blind, randomized, placebo-controlled, rising oral dose, sequential panel study of 40 healthy male subjects (five groups of eight subjects). The study medication was administered in […] sequential dose panels, with each panel including eplerenone, spironolactone and placebo. […] The 100 mg and 200 mg dose capsules corresponded to those described in Examples 7 and 8, respectively. Following a 48-hour interval, the study drug was administered once a day for 11 days. Antialdosterone activity was determined following a fludrocortisone challenge on Days 12-13.

[6] = 100 mg, eplerenone 100 mg Dose, Multiple Dose
[7] = 100 mg, eplerenone 100 mg Dose, Single Dose
[8] = 300 mg, eplerenone 300 mg Dose, Multiple Dose
[9] = 300 mg, eplerenone 300 mg Dose, Single Dose
[10] = 1000 mg, eplerenone 1000 mg Dose, Multiple Dose
[11] = 1000 mg, eplerenone 1000 mg Dose, Single Dose

## COC(=O)C1CC2=CC(=O)CCC2(C)C23OC2CC2(C)C(CC[C@@]24CCC(=O)O4)C13 (stereo partly drawn) [eplerenone, methyl hydrogen 9,11α-epoxy-17α-hydroxy-3-oxopregn-4-ene-7α,21-dicarboxylate, γ-lactone]
[1]; 100 mg capsule, fed vs fasted
  effect of high-fat meal on AUC0-96: minimal or no measurable effect
  effect of high-fat meal on Cmax: reduction
  effect of high-fat meal on Tmax: increase
  effect of high-fat meal on T½: minimal or no measurable effect
[1]; Fasted Conditions
  concentration at 0.5 h: 1010 ng/mL
  concentration at 1 h: 1560 ng/mL
  concentration at 2 h: 1390 ng/mL
  concentration at 3 h: 1170 ng/mL
  concentration at 4 h: 955 ng/mL
  concentration at 6 h: 587 ng/mL
  concentration at 8 h: 388 ng/mL
  concentration at 28 h: 7.62 ng/mL
  concentration at 48 h: 0 ng/mL
  concentration at 72 h: 0 ng/mL
  concentration at 12 h: 151 ng/mL
  concentration at 16 h: 68.8 ng/mL
  concentration at 24 h: 17.7 ng/mL
  concentration at 32 h: 3.28 ng/mL
  concentration at -0.5 h: 0 ng/mL
[1]; High Fat Breakfast
  concentration at 0.5 h: 71.2 ng/mL
  concentration at 1 h: 366 ng/mL
  concentration at 2 h: 712 ng/mL
  concentration at 3 h: 1040 ng/mL
  concentration at 4 h: 1240 ng/mL
  concentration at 6 h: 946 ng/mL
  concentration at 8 h: 673 ng/mL
  concentration at 28 h: 21.7 ng/mL
  concentration at 48 h: 1.91 ng/mL
  concentration at 72 h: 0 ng/mL
  concentration at 12 h: 282 ng/mL
  concentration at 16 h: 130 ng/mL
  concentration at 24 h: 39 ng/mL
  concentration at 32 h: 7.51 ng/mL
  concentration at -0.5 h: 0 ng/mL
[2]; 1.5 hour plasma samples, mean
  total radioactivity bound to plasma proteins: 49.4%
[2]; [14C]eplerenone spiked into frozen control plasma, 14.5 μg/mL
  percentage of eplerenone bound: 40.4%
[3]; 25 mg BID
  24 hour mean ΔDBP: −3.9 mmHg
  24 hour mean ΔSBP: −7.4 mmHg
  Primary Efficacy Variable: ΔDBP at trough (sitting): −4.5 mmHg
  ΔSBP at trough (sitting): −8.9 mmHg
[3]; 50 mg BID
  24 hour mean ΔDBP: −7.2 mmHg
  24 hour mean ΔSBP: −12.6 mmHg
  Primary Efficacy Variable: ΔDBP at trough (sitting): −7.8 mmHg
  ΔSBP at trough (sitting): −11.8 mmHg
[3]; 50 mg QD
  24 hour mean ΔDBP: −4.8 mmHg
  24 hour mean ΔSBP: −7.1 mmHg
  Primary Efficacy Variable: ΔDBP at trough (sitting): −4.4 mmHg
  ΔSBP at trough (sitting): −4.6 mmHg
[3]; 100 mg QD
  24 hour mean ΔDBP: −6.1 mmHg
  24 hour mean ΔSBP: −9.7 mmHg
  Primary Efficacy Variable: ΔDBP at trough (sitting): −4.5 mmHg
  ΔSBP at trough (sitting): −8.0 mmHg
[3]; 200 mg BID
  24 hour mean ΔDBP: −9.3 mmHg
  24 hour mean ΔSBP: −15.9 mmHg
  Primary Efficacy Variable: ΔDBP at trough (sitting): −9.4 mmHg
  ΔSBP at trough (sitting): −15.8 mmHg
[3]; 400 mg QD
  24 hour mean ΔDBP: −7.6 mmHg
  24 hour mean ΔSBP: −13.0 mmHg
  Primary Efficacy Variable: ΔDBP at trough (sitting): −8.9 mmHg
  ΔSBP at trough (sitting): −14.1 mmHg
[3]; all eplerenone doses, eight weeks of treatment, hypertension patients
  cuff diastolic and systolic pressures from baseline compared to placebo: lowered
[3]; eight weeks of treatment
  blood pressure reduction, QD versus BID dosing regimens: equivalent reductions
[4]
  increase of relative bioavailability: ~100%
[5]; 100 mg to 1000 mg, single or multiple doses
  dose proportionality of plasma concentrations and dose-adjusted AUC: lack of dose proportionality
[5]; all dosing groups (100, 300, 1000 mg)
  plasma concentrations at 24 hours postdose: detectable
[5]; [6]
  AUC: 11800 ng·h/mL
  Cmax: 1900 ng/mL
  Tmax: 1.1 h
  half-life: 4 h
[5]; [7]
  AUC: 11300 ng·h/mL
  Cmax: 1750 ng/mL
  Tmax: 1.8 h
  half-life: 3.9 h
[5]; [8]
  AUC: 26500 ng·h/mL
  Cmax: 3580 ng/mL
  Tmax: 1.8 h
  half-life: 4.6 h
[5]; [9]
  AUC: 23900 ng·h/mL
  Cmax: 3230 ng/mL
  Tmax: 2.4 h
  half-life: 4.6 h
[5]; [10]
  AUC: 63200 ng·h/mL
  Cmax: 7390 ng/mL
  Tmax: 1.4 h
  half-life: 6.2 h
[5]; [11]
  AUC: 62100 ng·h/mL
  Cmax: 6880 ng/mL
  Tmax: 2 h
  half-life: 8.7 h
[5]; once a day for 11 days
  accumulation: no significant or dose-related accumulation
